No end group written: not given here.
Experiments:
[1] = system: Tilapia D2 dopamine receptor; conditions: COS7 cells, SRE-Luc and Gqi5
Protocol: (§1) EC50 values were calculated from dose response curves by means of computerized non-linear curve fitting on baseline-corrected (control) values using Prism version 6 software (GraphPad).
(1 picture or pasted object on this page, not shown here)

[2] = system: spexin expression; conditions: spotted scat, in vitro; cited from earlier work
Text: (§2) Spexin has been implicated in regulating the hypothalamic-pituitary-gonad (HPG) axis in some fish species. […] The first report on fish spexin in zebrafish and goldfish identified high and dynamic expression in the brain throughout the reproductive stages ([10]). […] Ovariectomized goldfish had increased hypothalamic spexin e ...

[3] = target: tilapia Galr2a (Oreochromis niloticus, UniProt A0A650AWG9); format: cell-based, Nile tilapia (Oreochromis niloticus); conditions: Gqi pathway (chimeric Gqi5 with SRE-luc, Gαi readout), COS7 cells, 6 h stimulation after 16 h serum starvation, mean ± SEM, minimum three independent transfections, triplicate wells
Protocol: as §1

[4] = system: GalR2; conditions: cited from earlier work
Text: Spexin mediates its effects by activating an inhibitory G-protein (Gαi) via galanin receptor (GalR) 2/3. Like the kisspeptin, galanin, and spexin peptides, the kisspeptin and galanin receptors are related. Ancestral forms of KissR, GalR1, and GalR2/3 were identified on different VACs with 1R and 2R expanding each clade, giving rise to four KissR (KissR1, 3, 2, 4), two GalR1 (1a, 1b), two GalR2 (2a, 2b) and GalR3 paralogs ([15]). Our phylogenetic analysis supports that of Kim et al. ([15]), showing that GalRs are divided into two major clades, namely GalR1 and GalR2/3, with KissRs forming a dis ...

[5] = system: agouti-related peptide (AgRP) expression; conditions: zebrafish; cited from earlier work
Text: (§3) Spexin plays a role in feeding behavior and metabolism in fish and mammals [reviewed in ([3])]. In the orange-spotted grouper ([11]), half-smooth tongue sole ([46]), and spotted scat ([46]), starvation increased Spx1 expression. […] This effect was also observe ...

[6] = system: feeding behavior induced by NPY and orexin; conditions: intracerebroventricular injection; no reference printed at the sentence (preceding sentence ref 2); cited from earlier work
Text: as §3

[7] = system: goldfish; conditions: injection; cited from earlier work
Text: as §3

[8] = system: appetite stimulants and anorexigenic factors in the brain; conditions: goldfish brain, central administration, cited from earlier work
Text: as §3

[9] = system: GnIH, GnRH-III, GpHα and FSHβ expression; conditions: sole; cited from earlier work
Text: Spexin mRNA expression levels may also be correlated with reproductive development. Increases in LH and FSH mRNA expression is seasonal and corresponds to gonadal development ([50], [51]).

[10] = system: Galr2a; conditions: cited from earlier work
Text: (§4) The galanergic neurotransmission system is one of the newest described signaling systems. […] Three different types of galanin receptors have been described so far in mammals: galanin receptor 1, 2, and 3 (GALR1, GALR2, and GALR3) ([14]). All of them are members of the G protein-coupled receptor (GPCR) family and act through stimulation of various seco ...

[11] = system: GALR2; conditions: cited from earlier work
Text: as §4

[12] = system: GALR3; conditions: cited from earlier work
Text: as §4

[13] = system: Galr2b; conditions: cited from earlier work
Text: as §4

[14] = system: goldfish pituitary cultures; conditions: cited from earlier work
Text: as §2

[15] = system: LH release; conditions: goldfish; cited from earlier work
Text: as §2

[16] = system: stomach contraction; conditions: mammals; cited from earlier work
Text: (§5) Spexin (SPX1; also termed neuropeptide Q) was identified first by computational methods in humans ([1]), and then also by chemical methods in goldfish ([2]). These computational methods have been attempted mostly on the basis of the characteristics of the prohormones from which active neuropeptides are processed. The mature peptide sequence contains 14 amino acids that are flanked by monobasic and dibasic proteolytic cleavage sites. […] A paralog o ...

[17] = system: adrenocortical cell; conditions: mammals; cited from earlier work
Text: as §5

[18] = system: hypothalamic spexin expression; conditions: ovariectomized goldfish, estrogen replacement; cited from earlier work
Text: as §2

[19] = system: Spx1 levels and expression; conditions: cited from earlier work
Text: as §3

Sequence of tilapia Galr2a (A0A650AWG9 entry or part of it): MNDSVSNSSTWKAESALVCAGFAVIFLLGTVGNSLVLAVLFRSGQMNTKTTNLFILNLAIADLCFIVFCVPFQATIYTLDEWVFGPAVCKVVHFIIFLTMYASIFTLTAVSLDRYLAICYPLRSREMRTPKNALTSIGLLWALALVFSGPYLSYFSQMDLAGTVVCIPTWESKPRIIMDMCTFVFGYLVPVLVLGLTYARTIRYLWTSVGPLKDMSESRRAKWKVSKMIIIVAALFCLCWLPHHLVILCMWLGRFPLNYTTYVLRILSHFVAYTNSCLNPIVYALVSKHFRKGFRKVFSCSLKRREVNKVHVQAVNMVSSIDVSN

## NCCc1ccc(O)c(O)c1 [dopamine]
[1]
  luciferase activity via tilapia D2 receptor with Gqi5 (in words): dose-dependent increase in luciferase activity

## C[C@]12CC[C@@H]3c4ccc(O)cc4CC[C@H]3[C@@H]1CC[C@@H]2O [estradiol]
[2]
  spexin expression: decreased spexin expression in a dose-dependent manner in vitro

## GWTLNSAGYLLGPHAVGNHRSFSNKNGLTS-NH2 [Galanin]
[3]
  EC50: 0.0001 ± 5.6 log nM

## Spexin: spexin of cited literature; 14 amino acid peptide hormone, species varies
[4]
  dissociation / receptor internalization at GalR2: quickly dissociated after G-protein signaling
[5]
  AgRP expression: suppressed agouti-related peptide (AgRP) expression
[6]
  NPY- and orexin-induced feeding: inhibited feeding behavior induced by NPY and orexin
[7]
  feeding behavior: decreased surface feeding and increased food rejection
[8]; POMC, CART, CCK, MCH, CRH
  expression of anorexigenic factors: increased expression of anorexigenic factors
[8]
  expression of appetite stimulants: decrease in expression of appetite stimulants (NPY, AgRP, and apelin)
[9]
  GnIH and GnRH-III expression: increasing gonadotropin inhibitory hormone (GnIH) and GnRH-III expression
  GpHα and FSHβ expression: decreasing GpHα and FSHβ expression
[10]
  functional agonism at zebrafish Galr2a: functional agonist
[11]
  functional agonism at human GALR2: functional agonist
[12]
  functional agonism at human GALR3: functional agonist
[13]
  functional agonism at zebrafish Galr2b: functional agonist
[14]
  LH release in pituitary cultures: inhibited LH release
[15]
  LH release in vivo: inhibited LH release
[16]
  stomach contraction: inducing stomach contraction
[17]
  adrenocortical cell proliferation: inhibiting adrenocortical cell proliferation

## estrogen
[18]
  hypothalamic spexin expression: returned expression to basal levels

## insulin: insulin (cited study on spexin regulation)
[19]
  circulating Spx1 and brain Spx1 expression: increase circulating levels of Spx1 and its expression in the telencephalon, hypothalamus, and optic tectum

Reference: paper PMC7044129, “Spexin and a Novel Cichlid-Specific Spexin Paralog Both Inhibit FSH and LH Through a Specific Galanin Receptor (Galr2b) in Tilapia” (Frontiers in Endocrinology, 2020)
